From paper PMC10901097, “Vanillin derivatives as antiamnesic agents in scopolamine-induced memory impairment in mice” (Heliyon, 2024)
“Also recorded” adds a separate entry of the source.

Key:
[1] = DPPH free radical scavenging assay; conditions: triplicate (n = 3); 517 nm, 15 min
Method: A slightly modified DPPH assay as described by Brand William was followed. Initially, the absorbance of 3 mL from stock DPPH (20 mg/100 mL of methanol) was adjusted to 0.75 at 517 nm. The DPPH stock solution was covered and kept in the dark overnight to generate free radicals. About 2 mL of each dilution of different ranges (0.1–3.5 μM) was prepared from SB1– SB6 stock (5 mg/5 mL of methanol) were mixed with 2 mL of pre-incubated DPPH stock solution and incubated for 15 min at room temperature. Ascorbic acid was used as a standard. The absorbance of the reaction mixtures was recorded at 517 nm and the % inhibition was calculated by Equation (1):[1] %inhibition=A−B/A×100
where A = absorbance of pure DPPH in oxidized form, B = absorbance of the sample, which
Was measured after 15 min of reaction with DPPH.

[2] = ABTS free radical scavenging assay; conditions: triplicate (n = 3); 745 nm, 15 min
Method: The antioxidant potential of the synthesized compounds were also determined using ABTS free radical following a reported standard protocol. ABTS (7 mM) and K2S2O8 (2.45 mM) were mixed (in methanol) and put in the dark for 24 h for free radicals’ formation, which was then used as stock solution. The absorbance of 3 mL from the stock ABTS was adjusted to 0.75 at 745 nm, which was considered a control. About 300 μl of each of the serial dilutions (0.1–3.5 μM) of SB1– SB6 and 3 mL of stock ABTS were mixed and incubated for 15 min at 25 °C, and their absorbance was measured at 745 nm. Ascorbic acid was used as a control. The scavenging activity was calculated by Equation (1).

[3] = test system: scopolamine-induced memory impairment in mice; assay: Y-maze spontaneous alternation, scopolamine-induced amnesia; format: in vivo, Albino mice; conditions: for effect on spontaneous alternation / short-term memory retention in Y-Maze (significance): 50 and 100 mg/kg b.w, compared with scopolamine-injected group
Method: (§1) Albino mice (20–23 g b. w.) were brought from National Institute of Health, Islamabad, Pakistan, and the mice were retained in animal house at University of Malakand at Department of Pharmacy for acclimation. Normal pellet diet and water were provided to all the animals and were kept for 12 h of light-dark cycle under normal laboratory conditions (temperature in a range of 25 ± 2 °C, humidity of 56–66%). All protocols employed were approved from the Ethical Committee vide notification Pharm/EC-QRE/10–31/25 as per approved “Animal Bye-Laws 2008, Scientific Procedures Issue-I of the Malakand University” and the UK animal scientific procedure act (1986).
After acclimatization, the animals were grouped into different groups consisting of 6 animals each. […] It also can induce amyloid β deposition, oxidative stress, synaptic dysfunction, and learning/memory impairment in experimental animals. Group II received scopolamine along with galantamine as standard. […] The treatment was carried out continuously for 7 days and after treatment schedule, the animals were subjected to behavioural study using Y-maze and NORT.
To assess the short-term memory (amnesic) effect, the exploratory activity of mice were investigated using Y- maze apparatus. At a time, a single mouse was placed at Y-shaped maize and allowed to move freely for 5-min session and alterations were recorded as shown in Fig. 2. The percentage alternations were calculated as per reported protocol and mathematically as given in equation (2).[2] %Alternation=Spontaneousalternation/Totalnumberofarmentries−2×100
Fig. 2 (A). Schematic drawings of the Y-maze and the experimental procedures. The sample trial and test trials were conducted for 5 min at a 30 min interval. (B) The Y-Maze test diagrammatic figure. (a) The mouse was positioned in the middle of the fixed arm and faced the maze's centre during the test. (b) A mouse was considered to have entered an arm when all four of its paws passed the threshold inside the arm and the mouse's snout was pointed in the direction of the end of the arm. (C). Alternations consist of single, uninterrupted entries into each arm of the y-maze. There are three steps involved in each alternation. The steps of alternation are shown in (a) the first entrance into the arm 1; (b) the second entry into the arm 3; and (c) the third entry into the arm 2 [41, 42].

[4] = test system: scopolamine-induced memory impairment in mice; assay: Novel object recognition test (NORT), scopolamine-induced amnesia; format: in vivo, Albino mice; conditions: for effect on time spent with the new object N (exploration time) in NOR test: 50 and 100 mg/kg b.w (galantamine: standard), compared with scopolamine group; for effect on discrimination index in NOR test: 50 mg/kg and 100 mg/kg b.w, compared with scopolamine group / galantamine; for effect on latency time to discover familiar object (F) in NOR test: 50 and 100 mg/kg b.w, compared with scopolamine-injected group
Method: as §1
After acclimatization, the animals were grouped into different groups consisting of 6 animals each. […] It also can induce amyloid β deposition, oxidative stress, synaptic dysfunction, and learning/memory impairment in experimental animals. […] The treatment was carried out continuously for 7 days and after treatment schedule, the animals were subjected to behavioural study using Y-maze and NORT.
NORT was used to assess the effect of vanillin derivatives on memory in mice model. The apparatus employed in this test measures 40 cm wide, 40 cm long, and 66 cm tall. NORT entails a two-day habituation period, followed by a two-day training session and finally a testing or experimental period. During habituation, an empty box was used, two identical objects were placed in two corners of the box during training, and one unique object was replaced during testing as shown in Fig. 3. To test long-term memory in mice, a five-day washout period was provided before the NORT. The time spent in each phase was manually documented using a stopwatch.
Fig. 3 Procedures for novel object recognition (NORT). The three phases of the test are shown. In NORT, object identity is changed between training and test; object location is remained unchanged.

[5] = biological target: T1, acetylcholinesterase (EC 3.1.1.7) (Homo sapiens, UniProt P22303); assay: biochemical; conditions: triplicate (n = 3); 405 nm; read-out: IC50 (μM) AChE
T1 construct: purchased local market (no vendor named)
T1 sequence (P22303 32-614, species assumed): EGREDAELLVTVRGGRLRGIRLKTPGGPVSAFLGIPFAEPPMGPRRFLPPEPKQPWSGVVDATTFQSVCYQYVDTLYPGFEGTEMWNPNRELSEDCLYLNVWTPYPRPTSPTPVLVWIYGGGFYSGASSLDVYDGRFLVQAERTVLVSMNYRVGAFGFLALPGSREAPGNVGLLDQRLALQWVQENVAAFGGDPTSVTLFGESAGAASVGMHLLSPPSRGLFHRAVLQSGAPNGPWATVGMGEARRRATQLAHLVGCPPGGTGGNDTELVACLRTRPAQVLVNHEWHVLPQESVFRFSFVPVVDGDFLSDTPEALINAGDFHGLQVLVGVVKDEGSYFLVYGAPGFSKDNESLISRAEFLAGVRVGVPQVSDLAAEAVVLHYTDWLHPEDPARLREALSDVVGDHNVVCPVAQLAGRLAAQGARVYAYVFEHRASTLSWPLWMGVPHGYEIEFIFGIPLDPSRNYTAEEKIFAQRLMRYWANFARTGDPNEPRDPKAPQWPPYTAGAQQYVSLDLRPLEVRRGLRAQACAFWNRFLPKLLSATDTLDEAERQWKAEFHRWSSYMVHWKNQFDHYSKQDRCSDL
Text: (§2) To evaluate the therapeutic effectiveness of the compounds as inhibitors of cholinesterases, the reported procedures were followed (Elman's protocol). Enzymes acetylcholinesterase (EC 3.1.1.7) and butyrylcholinesterase (EC 3.1.1.8) were purchased from local market.
The acetylcholinesterase inhibition assay is based on the principle of the hydrolytic breakdown of substrate; acetylthiocholine iodide by acetylcholinesterase enzyme. The AChE acts on acetylthiocholine to thiocholine which then react with DTNB that's leads towards the formations of anion (5-thio-2-nitrobenzoate) a yellow colour product which is then assessed via UV visible spectrophotometer at 405 nm.
The AChE, Ellman's Reagent (DTNB) and acetylthiocholine iodide (ATChI, substrate), and the test compound solutions were made in different concentrations ranges from (0.01–1.0 μM) were incubated per detail given in the Ellman's protocol. […] IC50 of each Schiff bases were calculated using Microsoft Excel 2013 software.

[6] = biological target: T2, butyrylcholinesterase (EC 3.1.1.8) (Homo sapiens, UniProt P06276); assay: In-vitro BChE inhibitory assay (Ellman's protocol); format: biochemical; conditions: triplicate (n = 3); 405 nm
T2 construct: purchased local market (no vendor named)
T2 sequence (P06276 29-602): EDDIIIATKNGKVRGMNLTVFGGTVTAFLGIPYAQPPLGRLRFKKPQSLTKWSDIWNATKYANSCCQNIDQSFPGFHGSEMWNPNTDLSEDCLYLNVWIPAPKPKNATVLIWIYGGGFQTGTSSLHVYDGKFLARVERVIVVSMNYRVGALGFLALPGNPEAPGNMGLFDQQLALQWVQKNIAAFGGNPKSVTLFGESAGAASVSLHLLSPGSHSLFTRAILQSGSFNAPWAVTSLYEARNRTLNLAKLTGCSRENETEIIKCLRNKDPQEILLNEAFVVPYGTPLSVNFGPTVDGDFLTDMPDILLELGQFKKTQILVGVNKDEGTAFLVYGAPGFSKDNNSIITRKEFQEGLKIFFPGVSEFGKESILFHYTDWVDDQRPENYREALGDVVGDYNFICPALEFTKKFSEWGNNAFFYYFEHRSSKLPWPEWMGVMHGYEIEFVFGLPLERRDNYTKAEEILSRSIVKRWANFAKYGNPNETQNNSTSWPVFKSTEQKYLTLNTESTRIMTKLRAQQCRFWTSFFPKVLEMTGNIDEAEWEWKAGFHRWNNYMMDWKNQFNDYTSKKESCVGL
Method: as §2
The absorbance at 405 nm was measured and the data were analysed in triplicate.

[7] = 50 mg/kg b.w (lower test dose), 7 days, with scopolamine 2 mg/kg i.p., mean ± SEM, n = 6

Row | Compound | IC50 [1] | IC50 [2] | spontaneous alternation rate in Y-Maze ([3]; standard group: galantamine with scopolamine, P < 0.001 vs scopolamine-treated group) | effect on time spent with the new object N (exploration time) in NOR test [4] | spontaneous alternation rate in Y-Maze [3, 7] | effect on spontaneous alternation / short-term memory retention in Y-Maze (significance) [3] | IC50 [5] | IC50 [6] | effect on discrimination index in NOR test [4] | effect on latency time to discover familiar object (F) in NOR test [4] | changes in the memory and cognition of mice (NORT) ([4]; mouse, in vivo) | spontaneous alternation rate in Y-Maze ([3]; scopolamine-treated group, 2 mg/kg i.p. alone, n = 6)
1 | O=C1O[C@H]([C@@H](O)CO)C(O)=C1O [Ascorbic acid, reference compound] | 0.074 µM | 0.073 µM | – | – | – | – | – | – | – | – | – | –
2 | COc1ccc2c3c1O[C@H]1C[C@@H](O)C=C[C@@]31CCN(C)C2 [Galantamine, reference compound] | – | – | more than 80% | significant increase | – | – | – | – | – | – | – | –
3 | COc1cc(/C=N/c2ccccc2C(F)(F)F)ccc1O [SB-1, (E)-2-methoxy-4-(((2-(trifluoromethyl)phenyl)imino)methyl)phenol] | 0.588 µM | 0.208 µM | – | significant increase | 69.44 ± 1% | significantly improved | 0.078 µM | 0.265 µM | most prominent activity; also recorded: more pronounced as compared to standard drug | decreased the latency time significantly | – | –
4 | COc1ccc(/C=N/c2ccccc2C(F)(F)F)cc1O [SB-2, (E)-2-methoxy-5-(((2-(trifluoromethyl)phenyl)imino)methyl)phenol] | 0.447 µM | 0.401 µM | – | insignificant activity | – | no significant effect | 0.61 µM | 0.188 µM | insignificant activity | insignificant | did not cause any changes | –
5 | Oc1ccc(/C=N/c2ccccc2C(F)(F)F)cc1 [SB-3, (E)-4-(((2-(trifluoromethyl)phenyl)imino)methyl)phenol] | 0.305 µM | 0.118 µM | – | significant increase | 68.92 ± 1% | significantly improved | 0.157 µM | 0.057 µM | most prominent activity | decreased the latency time significantly | – | –
6 | Cc1ccc(/N=C/c2ccc(O)cc2)c(Cl)c1 [SB-4, (E)-4-(((2-chloro-4-methylphenyl)imino)methyl)phenol] | 0.804 µM | 0.969 µM | – | significant increase | – | – | 0.108 µM | 0.367 µM | most prominent activity | decreased the latency time significantly | – | –
7 | Cc1ccc(/N=C/c2ccccc2Br)c(Cl)c1 [SB-5, (E)-N-(2-bromobenzylidene)-2-chloro-4-methylaniline] | 0.72 µM | 0.19 µM | – | insignificant activity | – | – | 0.442 µM | 0.186 µM | insignificant activity | significant decrease | – | –
8 | Cc1ccc(/N=C/c2ccc[nH]2)c(Cl)c1 [SB-6, (E)-N-((1H-pyrrol-2-yl)methylene)-2-chloro-4-methylaniline] | 2.8 µM | 3.3 µM | – | slight activity | – | – | – | 0.117 µM | – | decreased the latency time significantly | – | –
9 | CN1[C@@H]2C[C@@H](OC(=O)[C@H](CO)c3ccccc3)C[C@H]1[C@@H]1O[C@@H]12 [Scopolamine] | – | – | – | – | – | – | – | – | – | – | – | 38.16%
